Results from the supplement of paper PMC10307832.

Columns and labels:
Assay in all cases: relative viability (nuclei count vs DMSO), 5 days (fraction); higher = more cells survive
[1] = compound: CC(C)C[C@H](NC(=O)[C@H](CCc1ccccc1)NC(=O)CN1CCOCC1)C(=O)N[C@@H](Cc1ccccc1)C(=O)N[C@@H](CC(C)C)C(=O)[C@@]1(C)CO1 [Carfilzomib] + CC(=O)c1c(C)c2cnc(Nc3ccc(N4CCNCC4)cn3)nc2n(C2CCCC2)c1=O [Palbociclib] (partner 0.5 µM)
Summary of the method: (§1)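 Each reported value is a median over duplicate plates. It expresses relative viability: treated-well nuclei count divided by vehicle-well nuclei count. Lung cancer cell lines in 1536-well plates were dosed by pin tool a day after seeding, alone with one drug or with a fixed anchor-drug dose plus five library-drug doses (not always all listed) in √10 steps, and nuclei were counted after 5 days.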

[2] = compound: C[C@@H](Oc1cc(-c2cnn(C3CCNCC3)c2)cnc1N)c1c(Cl)ccc(F)c1Cl [Crizotinib] + COc1cccc2cc(-c3nc([C@H]4CC[C@H](C(=O)O)CC4)n4ncnc(N)c34)[nH]c12 [OSI-027] (partner 0.5 µM)
Summary of the method: as §1

[3] = compound: C[C@@H](Oc1cc(-c2cnn(C3CCNCC3)c2)cnc1N)c1c(Cl)ccc(F)c1Cl [Crizotinib] + CS(=O)(=O)N1CCN(Cc2cc3nc(-c4cccc5[nH]ncc45)nc(N4CCOCC4)c3s2)CC1 [Pictilisib] (partner 1 µM)
Summary of the method: as §1

[4] = compound: C[C@@H](Oc1cc(-c2cnn(C3CCNCC3)c2)cnc1N)c1c(Cl)ccc(F)c1Cl [Crizotinib] + N=C(N)NC(=N)NCCc1ccccc1 [Phenformin] (partner 250 µM)
Summary of the method: as §1

With NCI-H2170 the relative viability ([1]; first compound 0.001 µM) was 0.38, the relative viability ([1]; first compound 0.003162 µM) was 0.437 and the relative viability ([1]; first compound 0.01 µM) was 0.456. It also gave a relative viability ([1]; first compound 0.03162 µM) of 0.339, a relative viability ([1]; first compound 0.1 µM) of 0.127 and a relative viability ([2]; first compound 0.01 µM) of 0.775. It also gave a relative viability ([2]; first compound 0.03162 µM) of 0.839, a relative viability ([2]; first compound 0.1 µM) of 0.741 and a relative viability ([2]; first compound 0.3162 µM) of 0.573. It also gave a relative viability ([2]; first compound 1 µM) of 0.691, a relative viability ([3]; first compound 0.01 µM) of 0.316 and a relative viability ([3]; first compound 0.03162 µM) of 0.315. It also gave a relative viability ([3]; first compound 0.1 µM) of 0.286, a relative viability ([3]; first compound 0.3162 µM) of 0.277 and a relative viability ([3]; first compound 1 µM) of 0.292. It also gave a relative viability ([4]; first compound 0.01 µM) of 0.394, a relative viability ([4]; first compound 0.03162 µM) of 0.443 and a relative viability ([4]; first compound 0.1 µM) of 0.419. For the same cell line, the relative viability ([4]; first compound 0.3162 µM) was 0.428 and the relative viability ([4]; first compound 1 µM) was 0.423.

In the case of NCI-H2228, the relative viability ([1]; first compound 0.001 µM) was 0.466, the relative viability ([1]; first compound 0.003162 µM) was 0.886 and the relative viability ([1]; first compound 0.01 µM) was 0.557. It also gave a relative viability ([1]; first compound 0.03162 µM) of 0.104, a relative viability ([1]; first compound 0.1 µM) of 0.105 and a relative viability ([2]; first compound 0.01 µM) of 0.607. It also gave a relative viability ([2]; first compound 0.03162 µM) of 0.563, a relative viability ([2]; first compound 0.1 µM) of 0.54 and a relative viability ([2]; first compound 0.3162 µM) of 0.272. The relative viability ([2]; first compound 1 µM) was 0.164, the relative viability ([3]; first compound 0.01 µM) was 0.392 and the relative viability ([3]; first compound 0.03162 µM) was 0.308. For the same cell line, the relative viability ([3]; first compound 0.1 µM) was 0.362, the relative viability ([3]; first compound 0.3162 µM) was 0.164 and the relative viability ([3]; first compound 1 µM) was 0.0922. It also gave a relative viability ([4]; first compound 0.01 µM) of 0.23, a relative viability ([4]; first compound 0.03162 µM) of 0.241 and a relative viability ([4]; first compound 0.1 µM) of 0.29. For the same cell line, the relative viability ([4]; first compound 0.3162 µM) was 0.172 and the relative viability ([4]; first compound 1 µM) was 0.164.

NCI-H2347 was tested, and the relative viability ([1]; first compound 0.001 µM) was 0.463, the relative viability ([1]; first compound 0.003162 µM) was 0.427 and the relative viability ([1]; first compound 0.01 µM) was 0.438. The relative viability ([1]; first compound 0.03162 µM) was 0.382, the relative viability ([1]; first compound 0.1 µM) was 0.332 and the relative viability ([2]; first compound 0.01 µM) was 0.375. For the same cell line, the relative viability ([2]; first compound 0.03162 µM) was 0.324, the relative viability ([2]; first compound 0.1 µM) was 0.417 and the relative viability ([2]; first compound 0.3162 µM) was 0.386. For the same cell line, the relative viability ([2]; first compound 1 µM) was 0.414, the relative viability ([3]; first compound 0.01 µM) was 0.624 and the relative viability ([3]; first compound 0.03162 µM) was 0.69. For the same cell line, the relative viability ([3]; first compound 0.1 µM) was 0.551, the relative viability ([3]; first compound 0.3162 µM) was 0.731 and the relative viability ([3]; first compound 1 µM) was 1.05. It also gave a relative viability ([4]; first compound 0.01 µM) of 0.24, a relative viability ([4]; first compound 0.03162 µM) of 0.329 and a relative viability ([4]; first compound 0.1 µM) of 0.473. The relative viability ([4]; first compound 0.3162 µM) was 0.488 and the relative viability ([4]; first compound 1 µM) was 0.333.

NCI-H2405 gave a relative viability ([1]; first compound 0.001 µM) of 0.498, a relative viability ([1]; first compound 0.003162 µM) of 0.527 and a relative viability ([1]; first compound 0.01 µM) of 0.539. The relative viability ([1]; first compound 0.03162 µM) was 0.489, the relative viability ([1]; first compound 0.1 µM) was 0.136 and the relative viability ([2]; first compound 0.01 µM) was 0.636. For the same cell line, the relative viability ([2]; first compound 0.03162 µM) was 0.605, the relative viability ([2]; first compound 0.1 µM) was 0.587 and the relative viability ([2]; first compound 0.3162 µM) was 0.669. For the same cell line, the relative viability ([2]; first compound 1 µM) was 0.593, the relative viability ([3]; first compound 0.01 µM) was 0.457 and the relative viability ([3]; first compound 0.03162 µM) was 0.526. The relative viability ([3]; first compound 0.1 µM) was 0.419, the relative viability ([3]; first compound 0.3162 µM) was 0.37 and the relative viability ([3]; first compound 1 µM) was 0.356. For the same cell line, the relative viability ([4]; first compound 0.01 µM) was 0.364, the relative viability ([4]; first compound 0.03162 µM) was 0.417 and the relative viability ([4]; first compound 0.1 µM) was 0.378. For the same cell line, the relative viability ([4]; first compound 0.3162 µM) was 0.412 and the relative viability ([4]; first compound 1 µM) was 0.398.
